From patent US20230399358A1, “IMMUNOGLOBULIN PURIFICATION PEPTIDES AND THEIR USE” (North Carolina State University, priority 2019, published 2023)

What was measured:
human polyclonal IgG = assay: Isothermal titration calorimetry (ITC) of IgG:ligand binding in solution; settings: 25° C, PBS pH 7.4, peptide in solution, independent binding model
Procedure: Measurements of IgG-binding affinity in solution by isothermal titration calorimetry (ITC): Experimental determination of the binding free energy of the IgG:WQRHGI (SEQ ID NO:1) complex was performed by ITC using a Nano ITC Low Volume calorimeter (TA Instruments, New Castle, DE). […] All solutions were filtered through a 0.22 p.m syringe filter prior to use. Ten injections were performed for each measurement. Background energy from peptide dilution was determined by performing 10 injections of 5 μL of a 2 mg/mL solution of WQRHGI (SEQ ID NO:1) in PBS pH 7.4. The titration data were analyzed using NanoAnalyze software (TA Instruments) and plotted using an independent fitting, which fits the resultant Wiseman plot with parameters corresponding to a non-competitive single-site binding phenomenon in order to calculate the binding affinity (K(D(ITC)), and the stoichiometry (N) of the interaction. A constant blank was also utilized in the fitting to account for the heat of dilution of the IgG substrate.
Characterization of binding affinity for IgG-binding peptide variants WQRHGI (SEQ ID NO:1) and MWRGWQ (SEQ ID NO:2) in non-competitive conditions: Candidate peptide ligands WQRHGI (SEQ ID NO:1) and MWRGWQ (SEQ ID NO:2) were selected for experimental evaluation of IgG binding in non-competitive conditions (pure IgG in solution). […]

[1] = system: human polyclonal IgG in CHO cell culture fluid; assay: Chromatographic purification of IgG from CHO cell culture fluid on WorkBeads resin, SDS-PAGE densitometry; settings: Elution 1 (pH 4), 5 min residence time, FIG. 7B
Procedure: Purification of IgG from CHO Cell culture fluids using MWRGWQC (SEQ ID NO:31)- and WQRHGIC (SEQ ID NO:30)—Workbeads: A volume of 0.1 mL of resin was packed in a PEEK microbore column, installed on a Waters 2695 unit, and equilibrated with PBS, pH 7.4. All chromatographic buffers were filtered through a compatible 0.2 μm filter prior to use. A volume of 100 μL of solution of human polyclonal IgG at 1 mg/mL in a CHO cell culture fluid at 0.205 mg/mL CHO HCPs was injected in the column at 0.02 mL/min (RT: 5 minutes). Following injection, the resin was washed with PBS at 0.2 mL/min and, subsequently, with 100 mM NaCl in PBS at 0.2 mL/min. Elution was then conducted with […] pH 4. An acidic cleaning step was conducted in 0.1 M glycine pH 2.5 to remove any proteins still bound. The absorbance of the effluent was monitored by UV/Vis spectrophotometry at 280 nm. Fractions were collected and adjusted to neutral pH. Total protein concentration was measured by BCA assay. All collected fractions were also analyzed via SDS PAGE under reducing conditions. The gel was stained by silver staining, and the overall IgG purity in the eluted fractions was determined by densitometric analysis using ImageJ software. Finally, the feed and eluted fractions were analyzed using a CHO-specific ELISA kit to determine the log removal value (LRV) of HCPs.
The high purity of the recovered IgG using WQRHGI (SEQ ID NO:1), as calculated by densitometric analysis (100%) was confirmed by the HCP LRV value of 2.7, thus indicating WQRHGI (SEQ ID NO:1) has purification abilities similar to Protein A. This is a remarkable result. […] The collected chromatographic fractions were analyzed by SDS-PAGE (FIG. 7B, silver stained to highlight diluted CHO HCPs). The % values of IgG in the fractions (expressed as a ratio of IgG concentration over total protein (e.g., IgG+CHO HCPs)) were calculated by densitometric analysis of the lanes in the SDS gel and were as follows: Control (C), 0.00%; Load (L) 59.77%; Flowthrough (FT), 0.00%; Elution 1 (El1), 100.00%; Elution 2 (El2), 0.00%; IgG 93.30%. […]

Kd (human polyclonal IgG): 58.8 µM
Substance: WQRHGI
% IgG over total protein [1]: 100%
